We go through two molecules from BindingDB's records for doi:10.1016/S0960-894X(00)80304-2 (1993).

The target in this test is Leukotriene B4 receptor 1 (Cavia porcellus). Nature of the test: Binding affinity against LTB4 receptor in guinea pig membrane.

Turning to `CCCc1c(OCCCOc2cc(O)c(C(C)=O)cc2CC)cccc1OC(C)C(=O)O` (configuration not stated) [2-{3-[3-(4-Acetyl-2-ethyl-5-hydroxy-phenoxy)-propoxy]-2-propyl-phenoxy}-propionic acid], the Ki came out at 19 nM.
The value for `CCCc1c(OCCCOc2cc(O)c(C(C)=O)cc2CC)cccc1OCC(=O)O` [{3-[3-(4-Acetyl-2-ethyl-5-hydroxy-phenoxy)-propoxy]-2-propyl-phenoxy}-acetic acid] was 5 nM.

Broadly, the Ki is a measure of affinity in units of concentration, obtained from inhibition or displacement. High values mean a looser hold on the target, low ones a stronger hold on the target.
